In patent publication US7709479B1, “Quinazoline derivatives and their use as pharmaceuticals” (AstraZeneca, priority 1999, dated 2010):

How the values were obtained:
MCF-7 cells [1] = test: In vitro cell proliferation assay, Assay 1 (CyQUANT cell density); type: cell-based; conditions: Homo sapiens, MCF7, 72 h; MCF-7, 3 days with compound; read-out: concentration giving 50% inhibition of cell proliferation
Source text: (b) In Vitro Cell Proliferation Assay
These and other assays can be used to determine the ability of a test compound to inhibit the growth of adherent mammalian cell lines, for example the human tumour cell line MCF7.
Assay 1: MCF-7 (ATCC HTB-22) or other adherent cells were typically seeded at 1×10^3 cells per well (excluding the peripheral wells) in DMEM (Sigma Aldrich) without phenol red, plus 10% foetal calf serum, 1% L-glutamine and 1% penicillin/streptomycin in 96 well tissue culture treated clear plates (Costar). The following day (day 1), the media was removed from a no treatment control plate and the plate stored at −80° C. The remaining plates were dosed with compound (diluted from 10 mM stock in DMSO using DMEM (without phenol red, 10% FCS, 1% L-glutamine, 1% penicillin/streptomycin). Untreated control wells were included on each plate. After 3 days in the presence/absence of compound (day 4) the media was removed and the plates stored at −80° C. Twenty four hours later the plates were thawed at room temperature and cell density determined using the CyQUANT cell proliferation assay kit (c-7026/c-7027 Molecular Probes Inc.) according to manufacturers directions. Briefly, 200 μl of a cell lysis/dye mixture (10 μl of 20× cell lysis buffer B, 190 μl of sterile water, 0.25 μl of CyQUANT GR dye) was added to each well and the plates incubated at room temperature for 5 minutes in the dark. The fluorescence of the wells was then measured using a fluorescence microplate reader (gain 70, 2 reads per well, 1 cycle with excitation 485 nm and emission 530 nm using a CytoFluor plate reader (PerSeptive Biosystems Inc.)). The values from day 1 and day 4 (compound treated) together with the values from the untreated cells were used to determine the dilution range of a test compound that gave 50% inhibition of cell proliferation. Compound no. 1 in Table 1 was effective in this test at 8.03 μM and compound no. 101 in Table 4 was effective in this test at 1.06 μM. […] The optical density of the wells was then determined at 690 nm wavelength using a Titertek Multiscan plate reader. […]

MCF-7 cells [2] = test: In vitro cell proliferation assay, Assay 2 (BrdU incorporation); type: cell-based; conditions: Homo sapiens, MCF7; MCF-7, 48 hours with compound, 2 hour labelling; read-out: concentration giving 50% inhibition of BrdU incorporation
MCF7 cells = test: In vitro cell cycle analysis assay (FACS DNA content); type: cell-based, human; conditions: 24 hours
Description: This assay determines the ability of a test compound to arrest cells in specific phases of the cell cycle. Many different mammalian cell lines could be used in this assay and MCF7 cells are included here as an example. MCF-7 cells were seeded at 3×10^5 cells per T25 flask (Costar) in 5 ml DMEM (no phenol red 10% FCS, 1% L-glutamine 1% penicillin/streptomycin). Flasks were then incubated overnight in a humidified 37° C. incubator with 5% CO2. The following day 1 ml of DMEM (no phenol red 10% FCS, 1% L-glutamine 1% penicillin/streptomycin) carrying the appropriate concentration of test compound solubilised in DMSO was added to the flask. A no compound control treatments was also included (0.5% DMSO). The cells were then incubated for a defined time (usually 24 hours) with compound. After this time the media was aspirated from the cells and they were washed with 5 ml of prewarmed (37° C.) sterile PBSA, then detached from the flask by brief incubation with trypsin and followed by resuspension in 10 ml of 1% Bovine Serum Albumin (BSA, Sigma-Aldrich Co.) in sterile PBSA. The samples were then centrifuged at 2200 rpm for 10 min. The supernatant was aspirated and the cell pellet was resuspended in 200 μl of 0.1% (w/v) Tris sodium citrate, 0.0564% (w/v) NaCl, 0.03% (v/v) Nonidet NP40, [pH 7.6]. Propridium Iodide (Sigma Aldrich Co.) was added to 40 μg/ml and RNAase A (Sigma Aldrich Co.) to 100 μg/ml. The cells were then incubated at 37° C. for 30 minutes. The samples were centrifuged at 2200 rpm for 10 min, the supernatant removed and the remaining pellet (nuclei) resuspended in 200 μl of sterile PBSA. Each sample was then syringed 10 times using 21 gauge needle. The samples were then transferred to LPS tubes and DNA content per cell analysed by Fluorescence activated cell sorting (FACS) using a FACScan flow cytometer (Becton Dickinson). Typically 25000 events were counted and recorded using CellQuest v1.1 software (Verity Software). Cell cycle distribution of the population was calculated using Modfit software (Verity Software) and expressed as percentage of cells in G0/G1, S and G2/M phases of the cell cycle.

Row | Compound | IC50 (MCF-7 cells [1]) [nM] | IC50 (MCF-7 cells [2]) [nM] | % Cells in G1 (MCF7 cells; 25 μM) [%] | % Cells in G2/M (MCF7 cells; 25 μM) [%] | % Cells in S (MCF7 cells; 25 μM) [%] | % Cells in G1 (MCF7 cells; 2.12 μM) [%] | % Cells in G2/M (MCF7 cells; 2.12 μM) [%] | % Cells in S (MCF7 cells; 2.12 μM) [%]
1 | COc1cc2ncnc(Nc3ccc(NC(=O)c4ccccc4)cc3)c2cc1OC [Compound 1] | 8030 | 1240 | 25.82 | 56.47 | 17.71 | – | – | –
2 | COc1cc2c(Nc3ccc(NC(=O)c4ccccc4)cc3)ncnc2cc1OCCCN1CCOCC1 [Compound 101] | 1060 | 159 to 209 | – | – | – | 19.69 | 68.21 | 12.4
3 | COc1cc2ncnc(Nc3ccc(C(=O)NCc4ccc(F)cc4)cc3)c2cc1OC [Compound 557] | 1570 | – | – | – | – | – | – | –
